Laboratory results reported in PubChem BioAssay (NCI).
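Tested at 5 concentrations; 48 h exposure; 96-well plates; endpoints linearly interpolated, else capped at highest concentration. Here, GI50 denotes the concentration required for 50% inhibition of growth. Definition used: TGI = concentration required for complete inhibition of growth.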

Columns and labels:
Assay in all cases: NCI anticancer screen, dose series, 48 h
HCT-116 colon = test system: HCT-116 colon
HL-60(TB) leukemia = test system: HL-60(TB) leukemia
HOP-62 NSCLC = test system: HOP-62 NSCLC
NCI-H226 lung = test system: NCI-H226 lung
RPMI-8226 leukemia = test system: RPMI-8226 leukemia
HCC-2998 colon = test system: HCC-2998 colon
HT29 colon = test system: HT29 colon
NCI-H460 lung = test system: NCI-H460 lung
OVCAR-4 ovarian = test system: OVCAR-4 ovarian
HOP-18 NSCLC = test system: HOP-18 NSCLC
UO-31 renal = test system: UO-31 renal
K-562 leukemia = test system: K-562 leukemia
UACC-62 melanoma = test system: UACC-62 melanoma
OVCAR-5 ovarian = test system: OVCAR-5 ovarian
A549 NSCLC = test system: A549 NSCLC
NCI-H23 lung = test system: NCI-H23 lung
SN12C renal = test system: SN12C renal
SK-MEL-5 melanoma = test system: SK-MEL-5 melanoma
SF-539 CNS = test system: SF-539 CNS
SK-OV-3 ovarian = test system: SK-OV-3 ovarian
MALME-3M melanoma = test system: MALME-3M melanoma
CCRF-CEM leukemia = test system: CCRF-CEM leukemia
CAKI-1 renal = test system: CAKI-1 renal
M14 melanoma = test system: M14 melanoma
786-0 renal = test system: 786-0 renal
HOP-92 NSCLC = test system: HOP-92 NSCLC
SNB-19 CNS = test system: SNB-19 CNS
SF-268 CNS = test system: SF-268 CNS
NCI-H522 lung = test system: NCI-H522 lung
LOX IMVI melanoma = test system: LOX IMVI melanoma
A498 renal = test system: A498 renal
IGROV1 ovarian = test system: IGROV1 ovarian
SNB-78 CNS = test system: SNB-78 CNS
LXFL 529 NSCLC = test system: LXFL 529 NSCLC
OVCAR-3 ovarian = test system: OVCAR-3 ovarian
KM12 colon = test system: KM12 colon
TK-10 renal = test system: TK-10 renal
RXF 393 renal = test system: RXF 393 renal
SF-295 CNS = test system: SF-295 CNS
U251 CNS = test system: U251 CNS
ACHN renal = test system: ACHN renal
SK-MEL-2 melanoma = test system: SK-MEL-2 melanoma
M19-MEL melanoma = test system: M19-MEL melanoma
DLD-1 colon = test system: DLD-1 colon
OVCAR-8 ovarian = test system: OVCAR-8 ovarian
COLO 205 colon = test system: COLO 205 colon
MOLT-4 leukemia = test system: MOLT-4 leukemia
UACC-257 melanoma = test system: UACC-257 melanoma
SK-MEL-28 melanoma = test system: SK-MEL-28 melanoma
SW-620 colon = test system: SW-620 colon
EKVX NSCLC = test system: EKVX NSCLC
KM20L2 colon = test system: KM20L2 colon
SNB-75 CNS = test system: SNB-75 CNS
HCT-15 colon = test system: HCT-15 colon
DMS 273 small cell lung = test system: DMS 273 small cell lung
SR leukemia = test system: SR leukemia
XF 498 CNS = test system: XF 498 CNS

C1COCCN1.C1COCCN1.NC1CCCCC1N.[Cl-].[Pt+2] (configuration not stated)
GI50 (HCT-116 colon): > 100 µM | TGI (HCT-116 colon): > 100 µM | GI50 (HL-60(TB) leukemia): > 100 µM | TGI (HL-60(TB) leukemia): > 100 µM | GI50 (HOP-62 NSCLC): > 100 µM | TGI (HOP-62 NSCLC): > 100 µM | GI50 (NCI-H226 lung): > 100 µM | TGI (NCI-H226 lung): > 100 µM | GI50 (RPMI-8226 leukemia): > 100 µM | TGI (RPMI-8226 leukemia): > 100 µM | GI50 (HCC-2998 colon): > 100 µM | TGI (HCC-2998 colon): > 100 µM | GI50 (HT29 colon): > 100 µM | TGI (HT29 colon): > 100 µM | GI50 (NCI-H460 lung): > 100 µM | TGI (NCI-H460 lung): > 100 µM | GI50 (OVCAR-4 ovarian): > 100 µM | TGI (OVCAR-4 ovarian): > 100 µM | GI50 (HOP-18 NSCLC): > 100 µM | TGI (HOP-18 NSCLC): > 100 µM | GI50 (UO-31 renal): > 100 µM | TGI (UO-31 renal): > 100 µM | GI50 (K-562 leukemia): > 100 µM | TGI (K-562 leukemia): > 100 µM | GI50 (UACC-62 melanoma): > 100 µM | TGI (UACC-62 melanoma): > 100 µM | GI50 (OVCAR-5 ovarian): > 100 µM | TGI (OVCAR-5 ovarian): > 100 µM | GI50 (A549 NSCLC): > 100 µM | TGI (A549 NSCLC): > 100 µM | GI50 (NCI-H23 lung): > 100 µM | TGI (NCI-H23 lung): > 100 µM | GI50 (SN12C renal): > 100 µM | TGI (SN12C renal): > 100 µM | GI50 (SK-MEL-5 melanoma): > 100 µM | TGI (SK-MEL-5 melanoma): > 100 µM | GI50 (SF-539 CNS): > 100 µM | TGI (SF-539 CNS): > 100 µM | GI50 (SK-OV-3 ovarian): > 100 µM | TGI (SK-OV-3 ovarian): > 100 µM | GI50 (MALME-3M melanoma): 50.6 µM | TGI (MALME-3M melanoma): > 100 µM | GI50 (CCRF-CEM leukemia): > 100 µM | TGI (CCRF-CEM leukemia): > 100 µM | GI50 (CAKI-1 renal): > 100 µM | TGI (CAKI-1 renal): > 100 µM | GI50 (M14 melanoma): > 100 µM | TGI (M14 melanoma): > 100 µM | GI50 (786-0 renal): > 100 µM | TGI (786-0 renal): > 100 µM | GI50 (HOP-92 NSCLC): > 100 µM | TGI (HOP-92 NSCLC): > 100 µM | GI50 (SNB-19 CNS): > 100 µM | TGI (SNB-19 CNS): > 100 µM | GI50 (SF-268 CNS): > 100 µM | TGI (SF-268 CNS): > 100 µM | GI50 (NCI-H522 lung): 46.5 µM | TGI (NCI-H522 lung): > 100 µM | GI50 (LOX IMVI melanoma): > 100 µM | TGI (LOX IMVI melanoma): > 100 µM | GI50 (A498 renal): > 100 µM | TGI (A498 renal): > 100 µM | GI50 (IGROV1 ovarian): > 100 µM | TGI (IGROV1 ovarian): > 100 µM | GI50 (SNB-78 CNS): > 100 µM | TGI (SNB-78 CNS): > 100 µM | GI50 (LXFL 529 NSCLC): > 100 µM | TGI (LXFL 529 NSCLC): > 100 µM | GI50 (OVCAR-3 ovarian): > 100 µM | TGI (OVCAR-3 ovarian): > 100 µM | GI50 (KM12 colon): > 100 µM | TGI (KM12 colon): > 100 µM | GI50 (TK-10 renal): > 100 µM | TGI (TK-10 renal): > 100 µM | GI50 (RXF 393 renal): > 100 µM | TGI (RXF 393 renal): > 100 µM | GI50 (SF-295 CNS): > 100 µM | TGI (SF-295 CNS): > 100 µM | GI50 (U251 CNS): > 100 µM | TGI (U251 CNS): > 100 µM | GI50 (ACHN renal): > 100 µM | TGI (ACHN renal): > 100 µM | GI50 (SK-MEL-2 melanoma): > 100 µM | TGI (SK-MEL-2 melanoma): > 100 µM | GI50 (M19-MEL melanoma): > 100 µM | TGI (M19-MEL melanoma): > 100 µM | GI50 (DLD-1 colon): > 100 µM | TGI (DLD-1 colon): > 100 µM | GI50 (OVCAR-8 ovarian): > 100 µM | TGI (OVCAR-8 ovarian): > 100 µM | GI50 (COLO 205 colon): > 100 µM | TGI (COLO 205 colon): > 100 µM | GI50 (MOLT-4 leukemia): > 100 µM | TGI (MOLT-4 leukemia): > 100 µM | GI50 (UACC-257 melanoma): > 100 µM | TGI (UACC-257 melanoma): > 100 µM | GI50 (SK-MEL-28 melanoma): > 100 µM | TGI (SK-MEL-28 melanoma): > 100 µM | GI50 (SW-620 colon): > 100 µM | TGI (SW-620 colon): > 100 µM | GI50 (EKVX NSCLC): > 100 µM | TGI (EKVX NSCLC): > 100 µM | GI50 (KM20L2 colon): > 100 µM | TGI (KM20L2 colon): > 100 µM | GI50 (SNB-75 CNS): > 100 µM | TGI (SNB-75 CNS): > 100 µM

COC1OC(CBr)C(OC(=O)c2ccccc2)C(O)C1Br (configuration not stated)
TGI (HCT-116 colon): > 100 µM | TGI (HL-60(TB) leukemia): > 100 µM | TGI (HOP-62 NSCLC): > 100 µM | TGI (NCI-H226 lung): > 100 µM | TGI (RPMI-8226 leukemia): > 100 µM | TGI (HCC-2998 colon): > 100 µM | TGI (HT29 colon): > 100 µM | TGI (NCI-H460 lung): > 100 µM | TGI (OVCAR-4 ovarian): > 100 µM | TGI (HOP-18 NSCLC): > 100 µM | TGI (K-562 leukemia): > 100 µM | TGI (UACC-62 melanoma): > 100 µM | TGI (HCT-15 colon): > 100 µM | TGI (OVCAR-5 ovarian): > 100 µM | TGI (A549 NSCLC): > 100 µM | TGI (DMS 273 small cell lung): > 100 µM | TGI (NCI-H23 lung): > 100 µM | TGI (SN12C renal): > 100 µM | TGI (SK-MEL-5 melanoma): > 100 µM | TGI (SF-539 CNS): > 100 µM | TGI (MALME-3M melanoma): > 100 µM | TGI (CCRF-CEM leukemia): > 100 µM | TGI (CAKI-1 renal): > 100 µM | TGI (M14 melanoma): > 100 µM | TGI (786-0 renal): > 100 µM | TGI (HOP-92 NSCLC): > 100 µM | TGI (SNB-19 CNS): > 100 µM | TGI (SF-268 CNS): > 100 µM | TGI (NCI-H522 lung): > 100 µM | TGI (LOX IMVI melanoma): > 100 µM | TGI (A498 renal): > 100 µM | TGI (IGROV1 ovarian): > 10 µM | TGI (SNB-78 CNS): > 100 µM | TGI (LXFL 529 NSCLC): > 100 µM | TGI (OVCAR-3 ovarian): > 100 µM | TGI (KM12 colon): > 100 µM | TGI (TK-10 renal): > 100 µM | TGI (RXF 393 renal): > 100 µM | TGI (SF-295 CNS): > 100 µM | TGI (U251 CNS): > 100 µM | TGI (SR leukemia): > 100 µM | TGI (M19-MEL melanoma): > 100 µM | TGI (DLD-1 colon): > 100 µM | TGI (XF 498 CNS): > 10 µM | TGI (OVCAR-8 ovarian): > 100 µM | TGI (COLO 205 colon): > 100 µM | TGI (MOLT-4 leukemia): > 100 µM | TGI (UACC-257 melanoma): > 10 µM | TGI (SK-MEL-28 melanoma): > 100 µM | TGI (SW-620 colon): > 100 µM | TGI (KM20L2 colon): > 100 µM
